Patent US20090137664A1, “SAURURUS CERNUUS COMPOUNDS THAT INHIBIT CELLULAR RESPONSES TO HYPOXIA” (priority 2003, published 2009)

How the values were obtained:
NCI-H322M = assay: NCI in vitro cell line screen (SRB), Non-Small Cell Lung Cancer NCI-H322M; type: cell-based
Method: (§1) For exemplary purposes, an embodiment of the present invention was tested for activity with respect to certain cancer cell lines. The following Tables show results from in vitro 60-cell line antitumor testing from the US National Cancer Institute Developmental Therapeutics Program (NCI-DTP) on compound 2. The testing was in connection with the NCI's In Vitro Cell Line Screening Project (IVCLSP). Detailed information regarding the experiments and their interpretation is available from the NCI.

RXF 393 = assay: NCI in vitro cell line screen (SRB), Renal Cancer RXF 393; type: cell-based
Method: as §1

SN12C = assay: NCI in vitro cell line screen (SRB), Renal Cancer SN12C; type: cell-based
Method: as §1

HS 578T = assay: NCI in vitro cell line screen (SRB), Breast Cancer HS 578T; type: cell-based
Method: as §1

UACC-62 = assay: NCI in vitro cell line screen (SRB), Melanoma UACC-62; type: cell-based
Method: as §1

RPMI-8226 = assay: NCI in vitro cell line screen (SRB), Leukemia RPMI-8226; type: cell-based
Method: as §1

A549/ATCC = assay: NCI in vitro cell line screen (SRB), Non-Small Cell Lung Cancer A549/ATCC; type: cell-based
Method: as §1

MDA-MB-231/ATCC = assay: NCI in vitro cell line screen (SRB), Breast Cancer MDA-MB-231/ATCC; type: cell-based
Method: as §1

SR = assay: NCI in vitro cell line screen (SRB), Leukemia SR; type: cell-based
Method: as §1

HIF-1α protein = assay: Western blot, hypoxic induction of nuclear HIF-1α protein in T47D cells; type: cell-based, human; conditions: T47D nuclear extract, hypoxia 4 hr
Method: Due to the low abundance of HIF-1α protein in whole cell extract, nuclear extract is prepared and the level of HIF-1α protein in the nuclear extract determined by Western blot. Briefly, exponentially grown T47D cells are exposed to compound 2 for 30 minutes. […] Nuclear extracts are prepared from control and treated cells, separated on a SDS/PAGE gel, the separated proteins transferred to a nitrocellulose membrane, incubated with the primary antibodies (anti-HIF-1α, and anti-HIF-1β monoclonal antibodies, Novus Biologicals), secondary antibody biotinylated anti-mouse immunoglobulin G and Vectastain ABC reagent (Vector Laboratories), and developed using ECL reagents (Amersham Biosciences). […] No change in HIF-1β protein level is observed across the treatments. It is reasonable to conclude that the selectivity of compound 2 towards hypoxia-activated HIF-1 is caused by selective blockade of the hypoxic induction of HIF-1 protein.
To investigate the mechanism of action, the effects of these compounds on hypoxic stabilization of HIF-1α protein are examined in T47D cells using Western blot.

[1] = Homo sapiens, read-out: LC50 (the source's name)

COc1ccc([C@@H](O)[C@@H](C)Oc2ccc([C@H]3O[C@H](c4ccc(O[C@H](C)[C@H](O)c5ccc6c(c5)OCO6)c(OC)c4)[C@H](C)[C@H]3C)cc2OC)cc1OC [Compound 2, manassantin B]
TGI (NCI-H322M): >1.00E−4 Molar
GI50 (NCI-H322M; Homo sapiens): 19.7 µM
LC50 (NCI-H322M; Homo sapiens): > 100 µM
Mean Optical Densities (NCI-H322M; Log10 Concentration −4.0 Molar): 1.146
Percent Growth (NCI-H322M; Log10 Concentration −4.0 Molar): 28%
Mean Optical Densities (NCI-H322M; Log10 Concentration −5.0 Molar): 1.266
Percent Growth (NCI-H322M; Log10 Concentration −5.0 Molar): 59%
Mean Optical Densities (NCI-H322M; Log10 Concentration −6.0 Molar): 1.380
Percent Growth (NCI-H322M; Log10 Concentration −6.0 Molar): 89%
Mean Optical Densities (NCI-H322M; Log10 Concentration −7.0 Molar): 1.370
Percent Growth (NCI-H322M; Log10 Concentration −7.0 Molar): 86%
Mean Optical Densities (NCI-H322M; Log10 Concentration −8.0 Molar): 1.315
Percent Growth (NCI-H322M; Log10 Concentration −8.0 Molar): 72%
TGI (RXF 393): >1.00E−4 Molar
GI50 (RXF 393; Homo sapiens): > 100 µM
CC50 (RXF 393; [1]): > 100 µM
Mean Optical Densities (RXF 393; Log10 Concentration −4.0 Molar): 0.930
Percent Growth (RXF 393; Log10 Concentration −4.0 Molar): 53%
Mean Optical Densities (RXF 393; Log10 Concentration −5.0 Molar): 0.993
Percent Growth (RXF 393; Log10 Concentration −5.0 Molar): 62%
Mean Optical Densities (RXF 393; Log10 Concentration −6.0 Molar): 1.170
Percent Growth (RXF 393; Log10 Concentration −6.0 Molar): 85%
Mean Optical Densities (RXF 393; Log10 Concentration −7.0 Molar): 1.267
Percent Growth (RXF 393; Log10 Concentration −7.0 Molar): 98%
Mean Optical Densities (RXF 393; Log10 Concentration −8.0 Molar): 1.226
Percent Growth (RXF 393; Log10 Concentration −8.0 Molar): 92%
TGI (SN12C): >1.00E−4 Molar
GI50 (SN12C; Homo sapiens): 35.2 µM
CC50 (SN12C; [1]): > 100 µM
Mean Optical Densities (SN12C; Log10 Concentration −4.0 Molar): 0.594
Percent Growth (SN12C; Log10 Concentration −4.0 Molar): 42%
Mean Optical Densities (SN12C; Log10 Concentration −5.0 Molar): 0.669
Percent Growth (SN12C; Log10 Concentration −5.0 Molar): 59%
Mean Optical Densities (SN12C; Log10 Concentration −6.0 Molar): 0.723
Percent Growth (SN12C; Log10 Concentration −6.0 Molar): 72%
Mean Optical Densities (SN12C; Log10 Concentration −7.0 Molar): 0.775
Percent Growth (SN12C; Log10 Concentration −7.0 Molar): 84%
Mean Optical Densities (SN12C; Log10 Concentration −8.0 Molar): 0.770
Percent Growth (SN12C; Log10 Concentration −8.0 Molar): 82%
TGI (HS 578T): >1.00E−4 Molar
GI50 (HS 578T; Homo sapiens): 10.4 µM
CC50 (HS 578T; [1]): > 100 µM
Mean Optical Densities (HS 578T; Log10 Concentration −4.0 Molar): 0.834
Percent Growth (HS 578T; Log10 Concentration −4.0 Molar): 17%
Mean Optical Densities (HS 578T; Log10 Concentration −5.0 Molar): 1.018
Percent Growth (HS 578T; Log10 Concentration −5.0 Molar): 51%
Mean Optical Densities (HS 578T; Log10 Concentration −6.0 Molar): 1.188
Percent Growth (HS 578T; Log10 Concentration −6.0 Molar): 82%
Mean Optical Densities (HS 578T; Log10 Concentration −7.0 Molar): 1.267
Percent Growth (HS 578T; Log10 Concentration −7.0 Molar): 96%
Mean Optical Densities (HS 578T; Log10 Concentration −8.0 Molar): 1.222
Percent Growth (HS 578T; Log10 Concentration −8.0 Molar): 88%
TGI (UACC-62): >1.00E−4 Molar
GI50 (UACC-62; Homo sapiens): 4.47 µM
CC50 (UACC-62; [1]): > 100 µM
Mean Optical Densities (UACC-62; Log10 Concentration −4.0 Molar): 0.573
Percent Growth (UACC-62; Log10 Concentration −4.0 Molar): 16%
Mean Optical Densities (UACC-62; Log10 Concentration −5.0 Molar): 0.697
Percent Growth (UACC-62; Log10 Concentration −5.0 Molar): 35%
Mean Optical Densities (UACC-62; Log10 Concentration −6.0 Molar): 0.971
Percent Growth (UACC-62; Log10 Concentration −6.0 Molar): 78%
Mean Optical Densities (UACC-62; Log10 Concentration −7.0 Molar): 1.072
Percent Growth (UACC-62; Log10 Concentration −7.0 Molar): 93%
Mean Optical Densities (UACC-62; Log10 Concentration −8.0 Molar): 1.038
Percent Growth (UACC-62; Log10 Concentration −8.0 Molar): 88%
TGI (RPMI-8226): 1.45E−5 Molar
GI50 (RPMI-8226; Homo sapiens): 337 nM
Mean Optical Densities (RPMI-8226; Log10 Concentration −4.0 Molar): 0.213
Percent Growth (RPMI-8226; Log10 Concentration −4.0 Molar): −33%
Mean Optical Densities (RPMI-8226; Log10 Concentration −5.0 Molar): 0.356
Percent Growth (RPMI-8226; Log10 Concentration −5.0 Molar): 6%
Mean Optical Densities (RPMI-8226; Log10 Concentration −6.0 Molar): 0.532
Percent Growth (RPMI-8226; Log10 Concentration −6.0 Molar): 34%
Mean Optical Densities (RPMI-8226; Log10 Concentration −7.0 Molar): 0.737
Percent Growth (RPMI-8226; Log10 Concentration −7.0 Molar): 67%
Mean Optical Densities (RPMI-8226; Log10 Concentration −8.0 Molar): 0.766
Percent Growth (RPMI-8226; Log10 Concentration −8.0 Molar): 72%
TGI (A549/ATCC): >1.00E−4 Molar
GI50 (A549/ATCC; Homo sapiens): 6.76 µM
LC50 (concentration giving 50% net cell kill) (A549/ATCC; Homo sapiens): > 100 µM
Mean Optical Densities (A549/ATCC; Log10 Concentration −4.0 Molar): 0.691
Percent Growth (A549/ATCC; Log10 Concentration −4.0 Molar): 30%
Mean Optical Densities (A549/ATCC; Log10 Concentration −5.0 Molar): 0.849
Percent Growth (A549/ATCC; Log10 Concentration −5.0 Molar): 45%
Mean Optical Densities (A549/ATCC; Log10 Concentration −6.0 Molar): 1.200
Percent Growth (A549/ATCC; Log10 Concentration −6.0 Molar): 77%
Mean Optical Densities (A549/ATCC; Log10 Concentration −7.0 Molar): 1.242
Percent Growth (A549/ATCC; Log10 Concentration −7.0 Molar): 80%
Mean Optical Densities (A549/ATCC; Log10 Concentration −8.0 Molar): 1.288
Percent Growth (A549/ATCC; Log10 Concentration −8.0 Molar): 85%
TGI (MDA-MB-231/ATCC): 4.74E−5 Molar
GI50 (MDA-MB-231/ATCC; Homo sapiens): 968 nM
CC50 (MDA-MB-231/ATCC; [1]): > 100 µM
Mean Optical Densities (MDA-MB-231/ATCC; Log10 Concentration −4.0 Molar): 0.384
Percent Growth (MDA-MB-231/ATCC; Log10 Concentration −4.0 Molar): −7%
Mean Optical Densities (MDA-MB-231/ATCC; Log10 Concentration −5.0 Molar): 0.457
Percent Growth (MDA-MB-231/ATCC; Log10 Concentration −5.0 Molar): 14%
Mean Optical Densities (MDA-MB-231/ATCC; Log10 Concentration −6.0 Molar): 0.569
Percent Growth (MDA-MB-231/ATCC; Log10 Concentration −6.0 Molar): 50%
Mean Optical Densities (MDA-MB-231/ATCC; Log10 Concentration −7.0 Molar): 0.630
Percent Growth (MDA-MB-231/ATCC; Log10 Concentration −7.0 Molar): 69%
Mean Optical Densities (MDA-MB-231/ATCC; Log10 Concentration −8.0 Molar): 0.640
Percent Growth (MDA-MB-231/ATCC; Log10 Concentration −8.0 Molar): 72%
TGI (SR): >1.00E−4 Molar
CC50 (SR; [1]): > 100 µM
Mean Optical Densities (SR; Log10 Concentration −4.0 Molar): 0.429
Percent Growth (SR; Log10 Concentration −4.0 Molar): 22%
Mean Optical Densities (SR; Log10 Concentration −5.0 Molar): 0.561
Percent Growth (SR; Log10 Concentration −5.0 Molar): 39%
Mean Optical Densities (SR; Log10 Concentration −6.0 Molar): 0.685
Percent Growth (SR; Log10 Concentration −6.0 Molar): 54%
Mean Optical Densities (SR; Log10 Concentration −7.0 Molar): 0.637
Percent Growth (SR; Log10 Concentration −7.0 Molar): 48%
Mean Optical Densities (SR; Log10 Concentration −8.0 Molar): 0.616
Percent Growth (SR; Log10 Concentration −8.0 Molar): 46%
hypoxic induction of HIF-1α protein (HIF-1α protein): specifically inhibits
